This passage reports EC50 and IC50 results from ChEMBL document CHEMBL1201862, “PubChem BioAssay data set” (2004).

The target in assay [1] is Luciferin 4-monooxygenase (Photinus pyralis, UniProt P08659). In words: firefly luciferase enzyme inhibitors, dose response, biochemical, luminescence (AID 1891).
A short description of assay [2]: Luminescence Cell-Based Dose Confirmation HTS to Identify Inhibitors of Platelet Dense Granule Release. [Related pubchem assays: 1663 (Primary HTS), 1678 (Summary of Project)]. It counts as functional.
Assay [3] can be described thus: Luminescence Cell-Based Dose Confirmation HTS to Identify Activators of 5'UTR Stem-Loop Driven Alpha-Synuclein mRNA Translation in H4 Neuroglioblastoma Cells. [Related pubchem assays: 1829 (Project Summary), 1814 (Primary HTS)]. Type of assay: functional.
The nature of assay [4]: Luminescence Cell-Based Dose Response HTS to Identify Activators of Luciferase Translation or Activity in H4 […] Cells. [Related pubchem assays: 1829 (Project Summary), 1814 (Primary HTS)]. It counts as functional.
Another assay has as its system H4. Briefly: Luminescence Cell-Based Dose Response HTS to Identify Activators of 5'UTR Stem-Loop Driven Prion Protein mRNA Translation in H4 Neuroglioblastoma Cells. [Related pubchem assays: 1829 (Project Summary), 1814 (Primary HTS)]. Type of assay: functional. The settings on record: Homo sapiens.
Assay [5] can be described thus: NIH-3T3 fibroblast cytotoxicity, dose response, cytotoxicity control, cell-based, fluorescence, Alamar Blue, secondary assay (AID 2327).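 Note: NIH-3T3 mouse fibroblasts cultured with fluconazole at 8 µg/mL.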 Type of assay: functional.
The target of a further assay is T1, Protein skinhead-1 (Caenorhabditis elegans, UniProt P34707).
T1 sequence (P34707 whole entry): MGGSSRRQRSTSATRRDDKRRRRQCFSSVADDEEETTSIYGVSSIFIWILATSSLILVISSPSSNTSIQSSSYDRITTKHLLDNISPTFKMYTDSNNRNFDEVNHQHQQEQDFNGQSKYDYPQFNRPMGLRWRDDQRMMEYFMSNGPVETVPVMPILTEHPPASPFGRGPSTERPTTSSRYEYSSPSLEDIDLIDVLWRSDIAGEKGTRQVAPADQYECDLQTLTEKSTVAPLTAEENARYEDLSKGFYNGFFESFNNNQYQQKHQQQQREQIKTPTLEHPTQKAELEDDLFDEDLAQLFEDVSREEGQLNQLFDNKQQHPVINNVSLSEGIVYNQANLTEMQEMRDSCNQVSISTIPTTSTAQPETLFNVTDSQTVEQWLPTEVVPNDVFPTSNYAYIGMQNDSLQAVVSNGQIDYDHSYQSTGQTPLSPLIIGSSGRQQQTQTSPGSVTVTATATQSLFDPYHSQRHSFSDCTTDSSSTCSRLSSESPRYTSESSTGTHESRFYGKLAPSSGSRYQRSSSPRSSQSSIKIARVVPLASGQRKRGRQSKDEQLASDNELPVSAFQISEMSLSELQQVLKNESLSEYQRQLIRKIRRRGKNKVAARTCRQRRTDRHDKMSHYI
Type of assay: functional.

Assay [6] can be described thus: inhibitors of firefly luciferase expression or activity, dose response, H4 neuroglioma cells, luminescence (AID 1990). It counts as functional, cell-based.
A short description of assay [7]: Luminescence Cell-Based Dose Response HTS to Identify Inhibitors of 5'UTR Stem-Loop Driven Prion Protein mRNA Translation in H4 Neuroglioblastoma Cells. [Related pubchem assays: 1827 (Project Summary), 1813 (Primary HTS)]. It counts as functional.
The nature of assay [8]: inhibitors of SNCA 5'UTR-driven reporter translation, confirmation, H4 neuroglioma cells, luminescence (AID 1988). Type of assay: functional, cell-based.
A short description of assay [9]: inhibitors of intracellular T. cruzi replication, confirmation, NIH3T3 host cells, beta-gal luminescence (AID 2044).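 Note: intracellular parasites grown in NIH/3T3 mouse fibroblasts as host cells; luminescent beta-galactosidase reporter signal from transgenic T. cruzi replicating inside host cells; inhibitors lower the luminescence signal.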 It counts as functional, cell-based.
Assay [10] in a line: cytotoxicity toward NIH3T3 fibroblasts, dose response, counter-screen, cell-based, ATP luminescence, mouse fibroblasts (AID 2010).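 Note: cells exposed to compound for about 90 hours before reading.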 It counts as functional. A general note: A counterscreen serves to expose hits that act by an unwanted route or on another target.
The target of assay [11] is T2, Rac GTPase-activating protein 1 (Homo sapiens, UniProt Q9H0H5).
T2 sequence (Q9H0H5 whole entry): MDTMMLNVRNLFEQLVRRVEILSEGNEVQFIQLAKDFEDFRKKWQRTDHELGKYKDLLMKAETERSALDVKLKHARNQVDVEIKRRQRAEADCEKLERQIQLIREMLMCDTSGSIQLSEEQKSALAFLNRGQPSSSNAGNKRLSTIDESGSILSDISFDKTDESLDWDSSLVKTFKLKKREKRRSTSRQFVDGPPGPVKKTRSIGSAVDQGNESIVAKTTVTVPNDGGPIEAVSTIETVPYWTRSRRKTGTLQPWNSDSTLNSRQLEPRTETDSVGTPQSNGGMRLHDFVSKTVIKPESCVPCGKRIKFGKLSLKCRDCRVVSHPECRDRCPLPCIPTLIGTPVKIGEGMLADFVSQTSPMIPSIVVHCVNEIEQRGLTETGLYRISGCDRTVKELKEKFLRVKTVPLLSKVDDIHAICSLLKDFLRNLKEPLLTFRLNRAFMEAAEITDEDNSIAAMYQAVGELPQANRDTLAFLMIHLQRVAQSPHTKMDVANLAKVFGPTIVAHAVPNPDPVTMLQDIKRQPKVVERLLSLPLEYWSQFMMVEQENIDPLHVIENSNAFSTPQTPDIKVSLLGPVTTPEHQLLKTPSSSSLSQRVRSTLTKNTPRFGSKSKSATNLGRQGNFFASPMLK
In words: MgcRacGAP GTPase-activating activity inhibitors, confirmation, biochemical, ADP Hunter fluorescence, primary and confirmatory (AID 624330). Type of assay: functional.

The source made the active and inactive calls. Cut-off read from the data, not from the text of the source, for most assays here: actives have a measured EC50 and inactives only a lower limit.

Sequence of Luciferin 4-monooxygenase (P08659 whole entry): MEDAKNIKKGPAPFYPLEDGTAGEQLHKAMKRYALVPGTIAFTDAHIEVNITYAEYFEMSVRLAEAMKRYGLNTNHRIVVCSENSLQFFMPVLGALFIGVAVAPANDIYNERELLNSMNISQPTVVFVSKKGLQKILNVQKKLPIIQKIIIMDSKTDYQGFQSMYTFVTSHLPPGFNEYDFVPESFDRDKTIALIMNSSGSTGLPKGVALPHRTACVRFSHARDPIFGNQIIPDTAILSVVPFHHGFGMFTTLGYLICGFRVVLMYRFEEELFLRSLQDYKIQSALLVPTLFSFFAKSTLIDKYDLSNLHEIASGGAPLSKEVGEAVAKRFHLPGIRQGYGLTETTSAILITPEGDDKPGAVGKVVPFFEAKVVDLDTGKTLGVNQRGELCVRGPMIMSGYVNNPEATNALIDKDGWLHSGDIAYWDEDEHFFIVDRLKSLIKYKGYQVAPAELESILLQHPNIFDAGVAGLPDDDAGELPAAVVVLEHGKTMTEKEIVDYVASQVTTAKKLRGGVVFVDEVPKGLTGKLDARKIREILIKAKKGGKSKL

The EC50 is the concentration giving half of the maximal effect. With `O=C(Nc1ccccc1)c1cnc2ccccc2n1`, the EC50 in [1] and in assay [2] was > 112 µM (not active) throughout.

Take `COc1ccc2nc(NNC(=O)c3cc(=O)c4ccccc4o3)sc2c1`: the EC50 in assay [3] was 40.6 µM (active); in assay [4], 24.4 µM (active); in the assay with H4 it was 17.4 µM (active).

With `CCCc1ccc(Oc2cc(Cl)nc(N)n2)cc1`, the EC50 in assay [3] was 8.77 µM (active); in assay [4], 11.8 µM (active); in the assay with H4, 72 µM (active).

Consider `Cc1ccc(S(=O)(=O)NCC2CCC(C(=O)NCc3ccc4c(c3)OCO4)CC2)cc1` (configuration not stated), for which the half-maximal effective concentration (EC50) in assay [1] and in assay [2] was > 112 µM (not active) each time.

Take `c1ccc(NCc2nc(-c3ccccc3)no2)cc1`: the values for the EC50 (in [3]; in assay [4]; in the assay with H4) were 3.25 µM (active), 21.4 µM (active) and 15.8 µM (active), respectively.

Take `COc1ccc(-c2n[nH]c(S)n2)cc1`: the concentration giving a half-maximal response (EC50) in assay [2] is given as > 112 µM (not active).

`Cc1cc(C)cc(OCc2ccc(C(=O)N3N=C(C(F)F)CC3(O)C(F)F)o2)c1` (configuration not stated): the concentration giving a half-maximal response (EC50) in [5] is 120 µM (active).

One may read the IC50 as the concentration that gives 50% inhibition. For the compound `FCCCOc1ccc(-c2nccc(-c3ccccn3)n2)cc1`, on Protein skinhead-1, the IC50 was 17.9 µM (active).

With `OC1CN=C2C=CC=CN2C1` (configuration not stated), the EC50 in assay [1] and in assay [2] was > 112 µM (not active) each time.

In the case of `CC(=O)Nc1cccc(Oc2cc(C#N)c(C#N)cc2N2CCCCCC2)c1`, the EC50 in [6] was 14.6 µM (active); in assay [7], > 120 µM (not active); in assay [8] it was > 120 µM (not active).

Turning to `NC(Cc1nc(-c2ccc(Br)cc2)cs1)=NO`, in assay [5], the EC50 is > 150 µM (inactive).

For the compound `COc1cc(NC(=O)CN2C(=O)C(c3ccccc3)=NC23CCCCCC3)cc(OC)c1`, the 50% effective concentration (EC50) in assay [1] and in [2] was > 112 µM (not active) each time.

Regarding `COc1ccc(C(c2sc3nc(C)nn3c2O)N2CCCCC2)cc1` (configuration not stated), the EC50 in assay [1] and in assay [2] was > 112 µM (not active) throughout.

Turning to `CC(C)CNc1nc(N)c([N+](=O)[O-])c(NCc2ccccc2)n1`, the half-maximal effective concentration (EC50) in assay [6] is 16.3 µM (active); in [7], > 120 µM (not active); in assay [8], 22.7 µM (active).

For the compound `CN1CCc2c(sc3c2C(=O)NC(c2ccccc2)N3)C1` (configuration not stated), the IC50 on Protein skinhead-1 is > 100 µM (inactive).

For `CCOC(=O)C1(C)C(N=Nc2ccc(Cl)cc2)=C(O)C(=O)N1c1ccccc1` (configuration not stated), at Protein skinhead-1, the IC50 is > 100 µM (inactive).

Turning to `Cn1ncc2cc(NC(=S)NC(=O)c3ccccc3)ccc21`, the EC50 in assay [3] is 13.8 µM (active); in assay [4] it was 21 µM (active); with H4, 83 µM (active).

Take `Cc1nc(S)c(C#N)c(C)c1CCC#N`: in assay [2], the EC50 is recorded as > 112 µM (not active).

On to `CONC=NC(=O)NOCc1ccc(Cl)cc1Cl`, for which the EC50 in [1] and in assay [2] was > 112 µM (not active) in each case.

For the compound `CC(C(=O)N(C)Cc1ccccc1)N1CCN(C/C=C/c2ccccc2)CC1` (configuration not stated), the EC50 in assay [9] is 0.164 µM (active); in assay [10] it was > 30 µM (not active). In addition, in assay [11], the half-maximal inhibitory concentration (IC50) is 80.2 µM (active).

With `Fc1ccc(Nc2cccc3nccnc23)cc1`, the concentration for half-maximal inhibition (IC50) at Protein skinhead-1 is 34.1 µM (active).

Consider `COc1ccc(C2CC(c3ccc4ccccc4c3)=NN2C(=O)CN2CCC(C(N)=O)CC2)cc1` (configuration not stated), for which the figures for the EC50 (in assay [3]; in [4]; with H4) were 15.6 µM (active), 18.1 µM (active) and 16.5 µM (active), respectively.

Turning to `Nc1ccc(N2CCOCC2)c(Cl)c1`, the IC50 in assay [11] is 38.2 µM (active).

On to `O=C(Nc1ccccc1Oc1ccccc1)c1cccs1`, for which the IC50 at Protein skinhead-1 is > 100 µM (inactive).

For `C/C(=C\c1ccco1)CN1CCC(N2CCC(C(=O)N3CCOCC3)CC2)CC1`, the half-maximal effective concentration (EC50) was 11.2 µM (active) in assay [3], 15.5 µM (active) in [4] and > 120 µM (not active) in the assay with H4.

Take `C/C=C/c1ccc(OCCCCN2CCN(CC)CC2)c(OC)c1`: the IC50 in [11] is 82 µM (active).

`Cc1cccc(N2CCN(S(=O)(=O)c3ccc4c(c3)C(C)(C)C(=O)N4C)CC2C)c1` (configuration not stated): the EC50 in assay [1] and in assay [2] was > 112 µM (not active) throughout.

For `Cc1ccc(C(=O)CC(=O)c2ccccc2)cc1`, the EC50 was 5.35 µM (active) in assay [3], 1.75 µM (active) in assay [4] and > 120 µM (not active) in the assay with H4.

As for `CCCCn1c(N)c(N(CCC(C)C)C(=O)C2CC(=O)N(c3ccc(OC)cc3OC)C2)c(=O)[nH]c1=O` (configuration not stated), the EC50 in assay [1] and in assay [2] was > 112 µM (not active) in each case.

For `CC(C)c1nnc(NC(=O)COc2ccccc2[N+](=O)[O-])s1`, the results for the EC50 (in assay [3]; in assay [4]; in the assay with H4) were 0.112 µM (active), 67 µM (active) and 13.6 µM (active), respectively.

On to `CSc1nc(N(C)NC(=O)c2ccc(F)cc2)c2ccccc2n1`, for which the EC50 in [6] is 10.6 µM (active); in assay [7], 0.258 µM (active); in assay [8] it was < 0.195 µM (active).

Consider `O=C(CSc1nnc2ccccn12)N1CCc2ccccc2C1`, for which the values for the EC50 (in assay [3]; in [4]; in the assay on H4) were 13.1 µM (active), 38.9 µM (active) and 78 µM (active), respectively.

Consider `CCN(CC(=O)Nc1cc(Cl)ccc1OC)CC(=O)NC1CCS(=O)(=O)C1` (configuration not stated), for which the half-inhibitory concentration (IC50) in assay [11] is 95.7 µM (active).

For the compound `CCCn1c(N)c(C(c2ccc(OC)cc2)N2CCN(c3ccccc3)CC2)c(=O)[nH]c1=O` (configuration not stated), the IC50 at Protein skinhead-1 is > 100 µM (inactive).

Turning to `O=C(Sc1ccc(Cl)cc1)c1ccccn1`, the half-inhibitory concentration (IC50) on Protein skinhead-1 is 44.5 µM (active).

As for `COc1cc2sc3cc(NCc4ccc(C)o4)ccc3c(=O)c2cc1OC`, the IC50 on Protein skinhead-1 was > 100 µM (inactive).

Consider `N#CC1(Nc2ccc(-c3ccc(NC4(C#N)CCCC4)cc3)cc2)CCCC1`, for which, in assay [11], the IC50 is 10.3 µM (active).

`Cc1nonc1C(=O)N/N=C/c1ccc(O)cc1`: the EC50 in [1] was 0.916 µM (active); in assay [2] it was 0.172 µM (active). The half-inhibitory concentration (IC50) in assay [11] was 95.6 µM (active).

As to `Cc1cc(S(=O)(=O)N2CCCC2)ccc1OCC(=O)N1CCOCC1`, the EC50 in assay [6], in [7] and in [8] was > 120 µM (not active) throughout.

With `Cc1nn(-c2ccccc2)c(O)c1/C=N/N(C)c1ccccc1`, the IC50 in [11] was 19.3 µM (active).

As to `COc1ccc(/C=N/NC(=O)CN2CCCCCCC2)c(C)c1C`, in assay [11], the IC50 is 139 µM (active).

For the compound `N#Cc1c(O)nsc1Nc1ccc(Cl)cc1`, the IC50 in assay [11] is 79.9 µM (active).

As to `Nc1ccc2c(c1)[nH]c(=O)c1cc(N)ccc12`, in assay [11], the IC50 was 10.9 µM (active).

Take `NS(=O)(=O)c1ccc(Nc2nc(-c3ccc(O)cc3)cs2)cc1`: in [11], the IC50 is 19.9 µM (active).
